From US4217305A, “Phenylethanolamine derivatives” (Yamanouchi Pharmaceutical Co., Ltd., priority 1977, dated 1980) come the findings set out here.

Type in all cases: in vivo
Experiment [1] concerns α-Adrenergic. Put plainly: α-Adrenergic blocking action: antagonism of hypertensive response to phenylephrine in anesthetized rats. To be noted: urethane anesthetized, pentolinium treated rats, phenylephrine 10 μg/Kg i.v.; for α-blocking (Rat) ED50: i.v.; for ED50: Rattus norvegicus, iv, read-out: α-blocking (Rat) ED50. The procedure:
A. α-Adrenergic blocking action: (a) The blood pressure was measured in rats anesthetized with urethane and treated with pentolinium.

Experiment [2] deals with spontaneously hypertensive rats. Put plainly: Antihypertensive effects in spontaneously hypertensive rats, oral administration. To be noted: at 10 mg/Kg p.o., mean ± S.E. of 5 to 10 animals, measured indirectly from the tail. As for the experimental part:
B. Antihypertensive effects in spontaneously hypertensive rats: Oral administration: The systolic blood pressure was measured indirectly from the tail using a programmed electro-sphygmanometer (Nacro Bio-Systems Inc., PE-300) on spontaneously hypertensive rats having a systolic blood pressure of higher than 150 mmHg, the result being shown in Table II.

The test system of experiment [3] is β-Adrenergic. Put plainly: β-Adrenergic blocking action: antagonism of isoproterenol induced tachycardia in rats. To be noted: reserpine pretreated, pentobarbital anesthetized rats, isoproterenol 0.1 μg/Kg iv.; for β-blocking (Rat) ED50: i.v.; for ED50: Rattus norvegicus, iv. As for the experimental part: Bilateral vagotomy was performed at the neck. The effects of the test samples to antagonize the isoproterenol (0.1 μg/Kg iv.) induced tachycardia were measured and the results were shown in Table I.

Take `COc1ccccc1OCC(C)NCC(O)c1ccc(C)c(S(N)(=O)=O)c1` (stereo not drawn) [69(i2), 5-{1-hydroxy-2-[2-(2-methoxyphenoxy)-1-methylethylamino]ethyl}-2-methylbenzenesulfonamide]: the “α-blocking (Rat) ED50” value in experiment [1] amounted to 0.054 mg/kg. The “antihypertensive effect: change in systolic blood pressure” value (shortened to “antihypertensive effect: change”) in experiment [2] (10 mg/kg) was -32 ± 6.7 mmHg. Moreover, the “β-blocking (Rat) ED50” value in experiment [3] turned out to be 0.47 mg/kg.

Turning to `COc1ccccc1CCC(C)NCC(O)c1ccc(C)c(S(N)(=O)=O)c1.Cl` (stereo not drawn) [36(i2), 5-{1-hydroxy-2-[3-(2-methoxyphenyl)-1-methylpropylamino]ethyl}-2-methylbenzenesulfonamide hydrochloride], in experiment [1] (hydrochloride), the “α-blocking (Rat) ED50” value came to 0.093 mg/kg. For the same molecule, in experiment [2] (hydrochloride, 10 mg/kg), the “antihypertensive effect: change” value is recorded as -33 ± 5.7 mmHg. In addition, the “β-blocking (Rat) ED50” value in experiment [3] (hydrochloride) was 0.41 mg/kg.

As usually defined, the ED50 is the dose that gives a 50% effect, or the effect in half of the subjects. As for `COc1ccccc1OCCNCC(O)c1ccc(C)c(S(N)(=O)=O)c1.Cl` (stereo not drawn) [Example 47, 5-{1-Hydroxy-2-[2-(2-methoxyphenoxy)ethylamino]ethyl}-2-methylbenzenesulfonamide hydrochloride], the ED50 in experiment [1] turned out to be 0.034 mg/kg; in experiment [3] it was 0.16 mg/kg. In addition, the “antihypertensive effect: change” value in experiment [2] was -35 ± 6.4 mmHg.

For the molecule `Cc1ccc(C(O)CNCCOc2ccccc2CO)cc1S(N)(=O)=O` (stereo not drawn) [Example 15, 5-{1-Hydroxy-2-[2-(2-hydroxymethylphenoxy)ethylamino]-ethyl}-2-methylbenzenesulfonamide], the ED50 in experiment [1] was 0.13 mg/kg; in experiment [3] it was 0.15 mg/kg. Moreover, the “antihypertensive effect: change” value in experiment [2] was -11 ± 4.3 mmHg.

As to `COc1ccccc1OCC(C)NCC(O)c1ccc(C)c(S(N)(=O)=O)c1` (stereo not drawn) [69(i1), 5-{1-hydroxy-2-[2-(2-methoxyphenoxy)-1-methylethylamino]ethyl}-2-methylbenzenesulfonamide], the “α-blocking (Rat) ED50” value in experiment [1] is 0.24 mg/kg. In addition, the “antihypertensive effect: change” value in experiment [2] (10 mg/kg) is recorded as -28 ± 7.7 mmHg. Besides, the “β-blocking (Rat) ED50” value in experiment [3] amounted to 0.057 mg/kg.

Take `COc1ccccc1CCC(C)NCC(O)c1ccc(C)c(S(N)(=O)=O)c1.Cl` (stereo not drawn) [36(i1 + i2), 5-{1-Hydroxy-2-[3-(2-methoxyphenyl)-1-methylpropylamino]-ethyl}-2-methylbenzenesulfonamide hydrochloride]: the “α-blocking (Rat) ED50” value in experiment [1] (hydrochloride) came to 0.43 mg/kg. The “antihypertensive effect: change” value in experiment [2] (hydrochloride, 10 mg/kg) was -40 ± 6.6 mmHg. The “β-blocking (Rat) ED50” value in experiment [3] (hydrochloride) was determined as 0.095 mg/kg.

As for `COc1ccccc1CCC(C)NCC(O)c1ccc(C)c(S(N)(=O)=O)c1.Cl` (stereo not drawn) [36(i1), 5-{1-hydroxy-2-[3-(2-methoxyphenyl)-1-methylpropylamino]ethyl}-2-methylbenzenesulfonamide hydrochloride], the “α-blocking (Rat) ED50” value in experiment [1] (hydrochloride) turned out to be 1.2 mg/kg. Besides, in experiment [2] (hydrochloride, 10 mg/kg), the “antihypertensive effect: change” value is given as -18 ± 6.1 mmHg. Also, the “β-blocking (Rat) ED50” value in experiment [3] (hydrochloride) was 0.071 mg/kg.

Regarding `COc1ccccc1OCC(C)NCC(O)c1ccc(O)c(S(N)(=O)=O)c1.Cl` (stereo not drawn) [Example 43, 2-Hydroxy-5-{1-hydroxy-2-[2-(2-methoxyphenoxy)-1-methylethylamino]ethyl}benzenesulfonamide hydrochloride], the ED50 worked out at 0.0091 mg/kg in experiment [1] and 0.53 mg/kg in experiment [3]. The “antihypertensive effect: change” value in experiment [2] is recorded as -33 ± 6.9 mmHg.

For the molecule `COc1ccccc1OCC(C)NCC(O)c1ccc(C)c(S(N)(=O)=O)c1` (stereo not drawn) [69(i1 + i2), 5-{1-hydroxy-2-[2-(2-methoxyphenoxy)-1-methylethylamino]ethyl}-2-methylbenzenesulfonamide], the “α-blocking (Rat) ED50” value in experiment [1] was 0.27 mg/kg. For the same molecule, the “antihypertensive effect: change” value in experiment [2] (10 mg/kg) was -43 ± 5.8 mmHg. Besides, the “β-blocking (Rat) ED50” value in experiment [3] came to 0.083 mg/kg.
